Measurements reported in US20240269139A1, “COMPOUNDS FOR TARGETED PROTEIN DEGRADATION OF KINASES” (DANA-FARBER CANCER INSTITUTE, INC., priority 2020, published 2024).
Where two headings read alike, the source gives them in different places.

Key:
Type in all cases: cell-based
[1] = biological target: protein kinases (human kinome) (Homo sapiens, UniProt O96013); conditions: PAK4 O96013-1
[2] = biological target: protein kinases (human kinome) (Homo sapiens, UniProt Q9NYL2)
[3] = biological target: protein kinases (human kinome) (Homo sapiens, UniProt Q9Y4K4); conditions: MAP4K5 (Q9Y4K4)
Chain of protein kinases (human kinome) (Homo sapiens, UniProt Q9Y4K4) (Q9Y4K4 whole entry): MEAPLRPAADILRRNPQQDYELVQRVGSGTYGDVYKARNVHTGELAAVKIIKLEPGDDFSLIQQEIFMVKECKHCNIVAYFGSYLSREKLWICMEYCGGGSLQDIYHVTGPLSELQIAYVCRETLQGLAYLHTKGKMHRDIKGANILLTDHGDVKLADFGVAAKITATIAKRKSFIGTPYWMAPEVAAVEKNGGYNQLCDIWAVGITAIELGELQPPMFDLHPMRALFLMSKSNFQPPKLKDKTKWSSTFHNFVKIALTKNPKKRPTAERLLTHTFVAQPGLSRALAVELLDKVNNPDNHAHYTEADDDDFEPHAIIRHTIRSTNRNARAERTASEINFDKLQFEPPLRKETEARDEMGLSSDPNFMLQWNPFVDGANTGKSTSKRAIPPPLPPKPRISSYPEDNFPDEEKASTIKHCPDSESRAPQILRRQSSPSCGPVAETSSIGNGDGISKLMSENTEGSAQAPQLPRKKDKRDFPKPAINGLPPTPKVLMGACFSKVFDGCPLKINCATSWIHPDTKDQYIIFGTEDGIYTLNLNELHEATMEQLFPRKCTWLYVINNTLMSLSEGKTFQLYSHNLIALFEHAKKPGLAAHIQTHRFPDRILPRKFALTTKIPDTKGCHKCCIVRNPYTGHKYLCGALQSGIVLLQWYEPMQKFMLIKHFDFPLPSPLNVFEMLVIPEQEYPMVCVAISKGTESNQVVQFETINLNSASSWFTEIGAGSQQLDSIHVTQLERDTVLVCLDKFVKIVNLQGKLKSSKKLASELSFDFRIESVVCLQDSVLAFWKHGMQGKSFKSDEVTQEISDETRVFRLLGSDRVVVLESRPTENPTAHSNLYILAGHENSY

[4] = biological target: T1, protein kinases (human kinome) (Homo sapiens, UniProt Q08881)
T1 sequence (Q08881 1-620): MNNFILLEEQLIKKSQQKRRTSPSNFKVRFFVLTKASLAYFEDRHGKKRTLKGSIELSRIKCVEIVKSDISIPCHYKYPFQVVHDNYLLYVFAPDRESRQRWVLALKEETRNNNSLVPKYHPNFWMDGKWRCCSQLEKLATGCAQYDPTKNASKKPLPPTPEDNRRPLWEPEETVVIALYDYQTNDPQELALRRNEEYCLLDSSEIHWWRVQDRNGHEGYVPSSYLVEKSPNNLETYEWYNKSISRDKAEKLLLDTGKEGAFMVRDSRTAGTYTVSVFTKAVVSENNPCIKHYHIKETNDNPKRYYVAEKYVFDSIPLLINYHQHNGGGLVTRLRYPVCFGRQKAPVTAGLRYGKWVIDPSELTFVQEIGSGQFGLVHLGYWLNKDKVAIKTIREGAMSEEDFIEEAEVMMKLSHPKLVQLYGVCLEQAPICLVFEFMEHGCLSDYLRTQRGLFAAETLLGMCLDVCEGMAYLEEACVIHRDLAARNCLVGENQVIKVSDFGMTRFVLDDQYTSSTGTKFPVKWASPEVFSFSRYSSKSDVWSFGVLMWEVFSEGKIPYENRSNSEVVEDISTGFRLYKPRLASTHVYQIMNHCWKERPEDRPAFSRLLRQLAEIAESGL

[5] = biological target: T2, protein kinases (human kinome) (Homo sapiens, UniProt O60285); conditions: NUAK1 (O60285)
T2 sequence (O60285 1-661): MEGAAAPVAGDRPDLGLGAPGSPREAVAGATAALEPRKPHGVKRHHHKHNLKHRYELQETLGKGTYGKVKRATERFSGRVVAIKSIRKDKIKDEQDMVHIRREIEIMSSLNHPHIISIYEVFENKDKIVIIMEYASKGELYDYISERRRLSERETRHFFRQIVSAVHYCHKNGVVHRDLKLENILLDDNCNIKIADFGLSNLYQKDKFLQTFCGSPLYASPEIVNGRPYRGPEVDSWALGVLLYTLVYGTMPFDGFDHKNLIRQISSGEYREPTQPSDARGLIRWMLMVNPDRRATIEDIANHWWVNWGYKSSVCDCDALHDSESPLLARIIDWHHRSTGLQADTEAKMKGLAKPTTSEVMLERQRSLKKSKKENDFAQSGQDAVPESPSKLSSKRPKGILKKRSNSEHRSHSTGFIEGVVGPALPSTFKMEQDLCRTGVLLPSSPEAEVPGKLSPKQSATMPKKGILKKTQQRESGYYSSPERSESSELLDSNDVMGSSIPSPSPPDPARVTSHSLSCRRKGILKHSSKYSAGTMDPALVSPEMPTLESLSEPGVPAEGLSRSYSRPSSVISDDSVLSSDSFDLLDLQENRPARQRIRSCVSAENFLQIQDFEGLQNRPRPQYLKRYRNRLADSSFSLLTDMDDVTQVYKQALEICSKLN

[6] = biological target: protein kinases (human kinome) (Homo sapiens, UniProt Q15131); conditions: for logFC: CDK10 (Q15131-1)
Chain of protein kinases (human kinome) (Homo sapiens, UniProt Q15131) (Q15131 whole entry): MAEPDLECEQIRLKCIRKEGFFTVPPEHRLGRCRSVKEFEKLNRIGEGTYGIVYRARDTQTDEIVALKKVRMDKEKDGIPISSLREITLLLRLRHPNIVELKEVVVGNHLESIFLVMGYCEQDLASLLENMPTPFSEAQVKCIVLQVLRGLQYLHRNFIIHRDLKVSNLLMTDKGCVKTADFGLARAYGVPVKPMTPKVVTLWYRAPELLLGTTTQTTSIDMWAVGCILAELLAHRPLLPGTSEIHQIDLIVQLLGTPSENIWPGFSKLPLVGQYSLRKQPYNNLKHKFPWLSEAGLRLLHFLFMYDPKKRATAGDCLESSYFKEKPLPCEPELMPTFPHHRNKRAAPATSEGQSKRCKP

[7] = biological target: protein kinases (human kinome) (Homo sapiens, UniProt Q13164); conditions: MAPK7 (Q13164-1)
Chain of protein kinases (human kinome) (Homo sapiens, UniProt Q13164) (Q13164 whole entry): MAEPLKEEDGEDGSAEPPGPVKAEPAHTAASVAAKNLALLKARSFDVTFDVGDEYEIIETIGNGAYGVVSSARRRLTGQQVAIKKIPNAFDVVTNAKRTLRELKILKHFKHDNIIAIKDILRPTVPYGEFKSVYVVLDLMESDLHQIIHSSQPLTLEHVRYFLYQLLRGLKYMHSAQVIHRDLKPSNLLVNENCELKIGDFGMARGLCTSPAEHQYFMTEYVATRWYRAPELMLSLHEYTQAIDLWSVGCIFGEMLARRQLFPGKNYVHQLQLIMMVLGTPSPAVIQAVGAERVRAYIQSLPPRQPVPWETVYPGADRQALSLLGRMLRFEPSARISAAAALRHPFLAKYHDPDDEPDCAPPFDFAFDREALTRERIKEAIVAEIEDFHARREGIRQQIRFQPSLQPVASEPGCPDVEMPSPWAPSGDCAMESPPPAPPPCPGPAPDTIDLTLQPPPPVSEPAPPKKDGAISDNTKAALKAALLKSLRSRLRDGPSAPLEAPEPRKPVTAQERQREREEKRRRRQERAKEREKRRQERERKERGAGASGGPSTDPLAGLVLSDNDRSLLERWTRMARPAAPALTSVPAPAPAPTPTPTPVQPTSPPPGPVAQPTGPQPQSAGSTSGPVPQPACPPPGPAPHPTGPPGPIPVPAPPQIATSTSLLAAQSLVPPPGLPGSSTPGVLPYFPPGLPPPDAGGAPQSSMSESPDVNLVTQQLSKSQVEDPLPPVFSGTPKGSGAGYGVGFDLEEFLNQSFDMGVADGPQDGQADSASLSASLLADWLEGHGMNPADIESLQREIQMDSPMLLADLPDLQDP

[8] = experiment wp107, direction down
[9] = experiment wp146, direction down
[10] = experiment wp076, direction down

Chain of protein kinases (human kinome) (Homo sapiens, UniProt O96013) (O96013 whole entry): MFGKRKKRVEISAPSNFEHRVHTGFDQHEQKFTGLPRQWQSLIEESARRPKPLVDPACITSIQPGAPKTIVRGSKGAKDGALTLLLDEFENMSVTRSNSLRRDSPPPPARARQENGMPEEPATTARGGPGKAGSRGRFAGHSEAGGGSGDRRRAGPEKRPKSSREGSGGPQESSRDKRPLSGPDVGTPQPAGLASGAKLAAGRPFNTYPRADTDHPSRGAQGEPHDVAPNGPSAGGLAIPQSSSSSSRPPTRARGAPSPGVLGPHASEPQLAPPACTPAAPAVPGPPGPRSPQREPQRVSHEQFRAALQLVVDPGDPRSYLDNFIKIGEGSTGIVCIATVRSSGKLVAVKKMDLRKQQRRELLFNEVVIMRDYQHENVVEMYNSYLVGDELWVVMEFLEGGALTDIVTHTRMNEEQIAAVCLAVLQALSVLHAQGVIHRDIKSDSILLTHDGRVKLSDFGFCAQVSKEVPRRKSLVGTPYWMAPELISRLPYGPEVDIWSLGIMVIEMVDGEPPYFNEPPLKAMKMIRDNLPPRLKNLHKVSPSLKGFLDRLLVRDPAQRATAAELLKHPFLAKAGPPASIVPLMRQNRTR
Chain of protein kinases (human kinome) (Homo sapiens, UniProt Q9NYL2) (Q9NYL2 whole entry): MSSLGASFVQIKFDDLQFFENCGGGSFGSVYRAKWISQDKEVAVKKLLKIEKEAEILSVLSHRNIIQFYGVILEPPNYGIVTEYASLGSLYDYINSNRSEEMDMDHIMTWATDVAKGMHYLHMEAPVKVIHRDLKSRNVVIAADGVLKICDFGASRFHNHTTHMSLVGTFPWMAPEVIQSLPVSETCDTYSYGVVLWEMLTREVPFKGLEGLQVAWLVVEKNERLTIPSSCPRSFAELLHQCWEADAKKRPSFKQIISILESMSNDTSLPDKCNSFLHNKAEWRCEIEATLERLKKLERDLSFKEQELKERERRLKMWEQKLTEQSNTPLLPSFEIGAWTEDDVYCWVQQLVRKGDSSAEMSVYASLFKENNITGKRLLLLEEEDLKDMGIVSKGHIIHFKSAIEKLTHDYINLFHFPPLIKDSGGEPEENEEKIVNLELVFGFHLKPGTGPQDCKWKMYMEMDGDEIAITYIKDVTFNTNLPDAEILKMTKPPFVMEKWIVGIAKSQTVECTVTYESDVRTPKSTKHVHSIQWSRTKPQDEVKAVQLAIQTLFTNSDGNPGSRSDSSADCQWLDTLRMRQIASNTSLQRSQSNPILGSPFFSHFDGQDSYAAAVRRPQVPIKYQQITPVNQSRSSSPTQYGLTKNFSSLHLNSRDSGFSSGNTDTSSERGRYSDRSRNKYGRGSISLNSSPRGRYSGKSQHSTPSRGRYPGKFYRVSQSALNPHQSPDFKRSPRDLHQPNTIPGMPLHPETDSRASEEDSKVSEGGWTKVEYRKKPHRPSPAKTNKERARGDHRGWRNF

For `Cc1ccc(NC(=O)c2cccc(C(F)(F)F)c2)cc1N1Cc2cnc(Nc3ccc(N4CCN(CCCOc5cccc6c5C(=O)N(C5CCC(=O)NC5=O)C6=O)CC4)nc3)nc2N(C)C1=O` (stereo not shown) [DB0662], the logFC ([1]; experiment wp168) was −1.34, the “logFC PAK4” value ([1]; experiment wp168) was −1.34 and the “logFC MAP3K20” value ([2]; MAP3K20 Q9NYL2; experiment wp168) was −0.737.
`Cc1ccc(NC(=O)c2cccc(C(F)(F)F)c2)cc1N1Cc2cnc(Nc3ccc(N4CCN(Cc5cn(CCCCCOc6cccc7c6C(=O)N(C6CCC(=O)NC6=O)C7=O)nn5)CC4)nc3)nc2N(C)C1=O` (stereo not shown) [DB0646, N-(3-(7-((6-(4-((1-(5-((2-(2,6-Dioxopiperidin-3-yl)-1,3-dioxoisoindolin-4-yl)oxy)pentyl)-1H-1,2,3-triazol-4-yl)methyl)piperazin-1-v)pyridin-3-yl)amino)-1-methyl-2-oxo-1,4-dihydropyrimido[4,5-d]pyrimidin-3(2H)-yl)-4-methylphenyl)-3-(trifluoromethyl)benzamide] was tested, and the “logFC MAP3K20 (Q9NYL2)” value ([2]; Experiment wp045) was −0.4248, the “logFC MAP3K20 (Q9NYL2)” value ([2]; Experiment wp107) was −0.53 and the “logFC MAP3K20 (Q9NYL2)” value ([2]; Experiment wp160, 2 hr) was −0.3293. The “logFC MAP3K20” value ([2]; MAP3K20 Q9NYL2; experiment wp045) was −0.4248, the “logFC MAP3K20” value ([2]; MAP3K20 Q9NYL2; experiment wp107) was −0.53 and the “logFC MAP3K20” value ([2]; MAP3K20 Q9NYL2; experiment wp152) was −0.6556. The “logFC MAP3K20” value ([2]; MAP3K20 Q9NYL2; experiment wp160, 2 hr) was −0.3293, the “logFC MAP3K20” value ([2]; MAP3K20 Q9NYL2; experiment wp160, 4 hr) was −0.6192 and the “logFC MAP3K20” value ([2]; MAP3K20 Q9NYL2; experiment wp160, 8 hr) was −0.9197. For the same molecule, the “logFC MAP3K20” value ([2]; MAP3K20 Q9NYL2; experiment wp160; 4 hr) was −0.6192, the “logFC MAP3K20” value ([2]; MAP3K20 Q9NYL2; experiment wp160; 8 hr) was −0.9197 and the “logFC MAP3K20” value ([2]; MAP3K20 Q9NYL2; experiment wp172) was −0.3864. The “logFC MAP3K20 (Q9NYL2)” value ([2]; experiment wp152) was −0.6556, the logFC ([3]; experiment wp045) was −0.4109 and the logFC ([3]; experiment wp045, direction down) was −0.4109. The logFC ([3]; experiment wp107) was −0.3345, the logFC [3, 8] was −0.3345 and the logFC ([3]; experiment wp160, 8 hr) was −0.5009. It also gave a logFC ([3]; experiment wp160, 8 hr, direction down) of −0.5009.
`Nc1ncc(-c2ccc(S(=O)(=O)N(CCCNC(=O)CCOCCOCCOCCOCCOCCNc3cccc4c3C(=O)N(C3CCC(=O)NC3=O)C4=O)C3CC3)cc2)cc1-c1ccc2c(c1)CCNC2=O` (stereo not shown) [WH.10417.099] was tested, and the logFC ([1]; experiment wp103) was −0.3705, the “logFC PAK4” value ([1]; experiment wp103) was −0.3705 and the logFC ([1]; experiment wp105) was −0.3478. The “logFC PAK4” value ([1]; experiment wp105) was −0.3478, the logFC ([1]; experiment wp107) was −0.4797 and the “logFC PAK4” value ([1]; experiment wp107) was −0.4797.
`CC(C)S(=O)(=O)c1ccccc1Nc1nc(Nc2ccc(N3CCN(CCOCCOCCC(=O)NCCNc4cccc5c4CN(C4CCC(=O)NC4=O)C5=O)CC3)cc2)ncc1Cl` (stereo not shown) [TL13.97] was tested, and the logFC ([4]; ITK (Q08881) protein abundance, degrader vs DMSO, direction of change down) was −2.28 and the “logFC ITK (Q08881)” value ([4]; experiment wp137) was −2.28.
`CC(C)(C)c1nc(-c2cccc(NS(=O)(=O)c3c(F)cccc3F)c2F)c(-c2ccnc(NCCOCCNC(=O)CCOCCOCCNc3cccc4c3C(=O)N(C3CCC(=O)NC3=O)C4=O)n2)s1` (stereo not shown) [DD.03.106] was tested, and the “logFC MAP3K20 (Q9NYL2)” value ([2]; Experiment wp147, 2 uM) was −0.4079 and the “logFC MAP3K20” value ([2]; MAP3K20 Q9NYL2; experiment wp147, 2 uM) was −0.4079.
Work on `Cc1cc(Nc2ncc(Br)c(Nc3cccc(F)c3C(N)=O)n2)ccc1S(=O)(=O)NCCOCCOCCOCCOCCNc1cccc2c1C(=O)N(C1CCC(=O)NC1=O)C2=O` (stereo not shown) [TMX.02.174] yielded a logFC ([5]; experiment wp146) of −1.361 and a logFC [5, 9] of −1.361.
Molecule `NC(=O)c1c(F)cccc1Nc1nc(Nc2ccc(S(=O)(=O)NCCOCCOCCOCCOCCNc3cccc4c3C(=O)N(C3CCC(=O)NC3=O)C4=O)cc2)ncc1Br` (stereo not shown) [TMX.02.138] has a logFC ([5]; experiment wp146) of −0.8254 and a logFC [5, 9] of −0.8254.
Work on `Cc1ccc(C(=O)Nc2ccc(CN3CCN(CCCOCCOCCOCCNC(=O)COc4cccc5c4C(=O)N(C4CCC(=O)NC4=O)C5=O)CC3)c(C(F)(F)F)c2)cc1C#Cc1cnc2cccnn12` (stereo not shown) [SB1.G.187] yielded a logFC ([3]; experiment wp105) of −0.3488, a logFC ([3]; experiment wp105, direction down) of −0.3488 and a logFC ([3]; experiment wp107) of −0.4411. It also gave a logFC [3, 8] of −0.4411.
`CNC(=O)c1ccccc1Nc1cc(Nc2ccc(N3CCN(CCOCCOCCNC(=O)CNc4cccc5c4C(=O)N(C4CCC(=O)NC4=O)C5=O)CC3)cc2OC)ncc1C(F)(F)F` (stereo not shown) [MFH.5.103.1] was tested, and the logFC ([6]; experiment wp076) was −0.6988, the “logFC of CDK10 (Q15131-1)” value ([6]; experiment wp076) was −0.6988 and the logFC ([7]; experiment wp076) was −0.4142. For the same molecule, the logFC [7, 10] was −0.4142.
For `CCc1cnn2c(N(Cc3ccc(N)nc3)C(=O)CCOCCOCCOCCNC(=O)CNc3cccc4c3C(=O)N(C3CCC(=O)NC3=O)C4=O)cc(N3CCCC[C@H]3CCO)nc12` (stereo partly shown) [MFH.5.115.2], the logFC ([5]; experiment wp076) was −0.5264 and the logFC [5, 10] was −0.5264.
`C=CCn1c(=O)c2cnc(Nc3ccc(N4CCN(CCCNc5cccc6c5C(=O)N(C5CCC(=O)NC5=O)C6=O)CC4)cc3)nc2n1-c1cccc(C(C)(C)O)n1` (stereo not shown) [ZNL.02.096] was tested, and the logFC ([1]; experiment wp056) was −0.634, the “logFC PAK4” value ([1]; experiment wp056) was −0.634 and the logFC ([1]; experiment wp081) was −0.3989. The “logFC PAK4” value ([1]; experiment wp081) was −0.3989, the logFC ([1]; experiment wp106, 2 hr) was −0.4238 and the “logFC PAK4” value ([1]; experiment wp106, 2 hr) was −0.4238. The logFC ([1]; experiment wp106, 4 hr) was −0.5768, the “logFC PAK4” value ([1]; experiment wp106, 4 hr) was −0.5768 and the logFC ([1]; experiment wp118) was −0.5732. For the same molecule, the “logFC PAK4” value ([1]; experiment wp118) was −0.5732.
For `CC(C)S(=O)(=O)c1ccccc1Nc1nc(Nc2ccc(N3CCN(CCOCCNC(=O)CNc4ccc5c(c4)C(=O)N(C4CCC(=O)NC4=O)C5=O)CC3)cc2)ncc1Cl` (stereo not shown) [SK.3.93], the “logFC ITK (Q08881)” value ([4]; experiment wp016) was −2.136 and the “logFC ITK (Q08881)” value ([4]; experiment wp016, direction of change down) was −2.136.
For `Cc1ncsc1-c1ccc([C@H](C)NC(=O)[C@@H]2C[C@@H](O)CN2C(=O)[C@@H](NC(=O)CCOCCOCCN2CCN(c3ccc(Nc4ncc(Cl)c(Nc5ccccc5S(=O)(=O)C(C)C)n4)cc3)CC2)C(C)(C)C)cc1` [FMF.06.098.1], the “logFC ITK (Q08881)” value ([4]; Experiment wp108) was −0.3557, the “logFC ITK (Q08881)” value ([4]; experiment wp108, direction of change down) was −0.3557 and the “logFC ITK (Q08881)” value ([4]; experiment wp131) was −0.3625. The “logFC ITK (Q08881)” value ([4]; experiment wp131, direction of change down) was −0.3625, the logFC ([7]; experiment wp108) was −0.4347 and the logFC ([7]; experiment wp108, direction down) was −0.4347. The logFC ([7]; experiment wp131) was −0.4637 and the logFC ([7]; experiment wp131, direction down) was −0.4637.
`O=C1CCC(N2C(=O)c3cccc(NCCCCCCCCN4CCC(NC(=O)c5[nH]ncc5NC(=O)c5c(Cl)cccc5Cl)CC4)c3C2=O)C(=O)N1` (stereo not shown) [MFH.5.126.1] showed a logFC ([5]; experiment wp076) of −1.649 and a logFC [5, 10] of −1.649.
`O=C(COc1cccc2c1C(=O)N(C1CCC(=O)NC1=O)C2=O)NCCCCCCCN1CCc2cc(Nc3ncc(C4CC4)c(NCCCNC(=O)C4CCC4)n3)ccc2C1` (stereo not shown) [BSJ.04.178] was tested, and the logFC ([6]; experiment wp134) was −0.6546 and the “logFC of CDK10 (Q15131-1)” value ([6]; experiment wp134) was −0.6546.
